Read-outs that look alike come from different tables or passages of the source.
Experiments:
[1] = tested on: mRNA expressed from the genes (A) to (D) in rat liver; test: Behavior of genes (mRNA expression level, oligo-DNA microarray) in rat liver after 28-day oral administration; assay type: in vivo; details: for Behavior of gene caused by administration of chemical substance, Gene No. 4846 / Behavior of gene caused by administration of chemical substance, Gene No. 2026 / Behavior of gene caused by administration of chemical substance, Gene No. 4218 / Behavior of gene caused by administration of chemical substance, Gene No. 6182 / Behavior of gene caused by administration of chemical substance, Gene No. 5600: gene group (A); for Behavior of gene caused by administration of chemical substance, Gene No. 4846: Unigene No. Rn.144554; for Behavior of gene caused by administration of chemical substance, Gene No. 2026 / Behavior of gene caused by administration of chemical substance, Gene No. 4218: Unigene No. Rn.167075; for Behavior of gene caused by administration of chemical substance, Gene No. 6182: Unigene No. Rn.5834; for Behavior of gene caused by administration of chemical substance, Gene No. 5600: Unigene No. Rn.9836; for Behavior of gene caused by administration of chemical substance, Gene No. 1494 / Behavior of gene caused by administration of chemical substance, Gene No. 2045 / Behavior of gene caused by administration of chemical substance, Gene No. 2203: gene group (B); for Behavior of gene caused by administration of chemical substance, Gene No. 1494: Unigene No. Rn.1430; for Behavior of gene caused by administration of chemical substance, Gene No. 2045: Unigene No. Rn.19329; for Behavior of gene caused by administration of chemical substance, Gene No. 2203: Unigene No. Rn.21240; for Behavior of gene caused by administration of chemical substance, Gene No. 533 / Behavior of gene caused by administration of chemical substance, Gene No. 725 / Behavior of gene caused by administration of chemical substance, Gene No. 1163 / Behavior of gene caused by administration of chemical substance, Gene No. 4973 / Behavior of gene caused by administration of chemical substance, Gene No. 4095 / Behavior of gene caused by administration of chemical substance, Gene No. 1334 / Behavior of gene caused by administration of chemical substance, Gene No. 6620 / Behavior of gene caused by administration of chemical substance, Gene No. 6303 / Behavior of gene caused by administration of chemical substance, Gene No. 5878 / Behavior of gene caused by administration of chemical substance, Gene No. 1131 / Behavior of gene caused by administration of chemical substance, Gene No. 1562 / Behavior of gene caused by administration of chemical substance, Gene No. 1741 / Behavior of gene caused by administration of chemical substance, Gene No. 893 / Behavior of gene caused by administration of chemical substance, Gene No. 6026 / Behavior of gene caused by administration of chemical substance, Gene No. 154 / Behavior of gene caused by administration of chemical substance, Gene No. 1993 / Behavior of gene caused by administration of chemical substance, Gene No. 813 / Behavior of gene caused by administration of chemical substance, Gene No. 2494 / Behavior of gene caused by administration of chemical substance, Gene No. 2546 / Behavior of gene caused by administration of chemical substance, Gene No. 3776 / Behavior of gene caused by administration of chemical substance, Gene No. 3929 / Behavior of gene caused by administration of chemical substance, Gene No. 1119 / Behavior of gene caused by administration of chemical substance, Gene No. 6742 / Behavior of gene caused by administration of chemical substance, Gene No. 5634: gene group (C); for Behavior of gene caused by administration of chemical substance, Gene No. 533: Unigene No. Rn.106184; for Behavior of gene caused by administration of chemical substance, Gene No. 725: Unigene No. Rn.108075; for Behavior of gene caused by administration of chemical substance, Gene No. 1163: Unigene No. Rn.11766; for Behavior of gene caused by administration of chemical substance, Gene No. 4973: Unigene No. Rn.118529; for Behavior of gene caused by administration of chemical substance, Gene No. 4095: Unigene No. Rn.119024; for Behavior of gene caused by administration of chemical substance, Gene No. 1334 / Behavior of gene caused by administration of chemical substance, Gene No. 6620: Unigene No. Rn.120914; for Behavior of gene caused by administration of chemical substance, Gene No. 6303: Unigene No. Rn.123063; for Behavior of gene caused by administration of chemical substance, Gene No. 5878: Unigene No. Rn.143213; for Behavior of gene caused by administration of chemical substance, Gene No. 1131: Unigene No. Rn.144946; for Behavior of gene caused by administration of chemical substance, Gene No. 1562: Unigene No. Rn.14744; for Behavior of gene caused by administration of chemical substance, Gene No. 1741: Unigene No. Rn.1647; for Behavior of gene caused by administration of chemical substance, Gene No. 893: Unigene No. Rn.164817; for Behavior of gene caused by administration of chemical substance, Gene No. 6026: Unigene No. Rn.167685; for Behavior of gene caused by administration of chemical substance, Gene No. 154: Unigene No. Rn.185941; for Behavior of gene caused by administration of chemical substance, Gene No. 1993: Unigene No. Rn.18728; for Behavior of gene caused by administration of chemical substance, Gene No. 813: Unigene No. Rn.201760; for Behavior of gene caused by administration of chemical substance, Gene No. 2494: Unigene No. Rn.23969; for Behavior of gene caused by administration of chemical substance, Gene No. 2546: Unigene No. Rn.24561; for Behavior of gene caused by administration of chemical substance, Gene No. 3776: Unigene No. Rn.43232; for Behavior of gene caused by administration of chemical substance, Gene No. 3929: Unigene No. Rn.4620; for Behavior of gene caused by administration of chemical substance, Gene No. 1119: Unigene No. Rn.9757; for Behavior of gene caused by administration of chemical substance, Gene No. 6742: Unigene No. Rn.9779; for Behavior of gene caused by administration of chemical substance, Gene No. 5634: Unigene No. Rn.9862; for Behavior of gene caused by administration of chemical substance, Gene No. 5726: gene group (D), Unigene No. Rn.9939
Method in brief: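 Liver mRNA levels were compared with matched vehicle groups, with a shift of at least 1.5-fold up or down deemed significant unless its direction disagreed with other carcinogens. Test substances were dosed orally by gavage daily for 28 days to 5-week-old male F344 rats, four per group.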

[2] = tested on: liver; details: cited from earlier work
[3] = tested on: rodent; details: classification of the substance (C+/C−); cited from earlier work
[4] = classification of the substance (M+/M−); cited from earlier work

SMILES: O=C(O)C(Cl)(Cl)Cl [TS051, Trichloroacetic acid]
- Behavior of gene caused by administration of chemical substance, Gene No. 4846 ([1]; mRNA vs vehicle control group): −
- Behavior of gene caused by administration of chemical substance, Gene No. 2026 ([1]; mRNA vs vehicle control group): −
- Behavior of gene caused by administration of chemical substance, Gene No. 4218 ([1]; mRNA vs vehicle control group): −
- Behavior of gene caused by administration of chemical substance, Gene No. 6182 ([1]; mRNA vs vehicle control group): −
- Behavior of gene caused by administration of chemical substance, Gene No. 5600 ([1]; mRNA vs vehicle control group): −
- Behavior of gene caused by administration of chemical substance, Gene No. 1494 ([1]; mRNA vs vehicle control group): −
- Behavior of gene caused by administration of chemical substance, Gene No. 2045 ([1]; mRNA vs vehicle control group): −
- Behavior of gene caused by administration of chemical substance, Gene No. 2203 ([1]; mRNA vs vehicle control group): −
- Behavior of gene caused by administration of chemical substance, Gene No. 533 ([1]; mRNA vs vehicle control group): −
- Behavior of gene caused by administration of chemical substance, Gene No. 725 ([1]; mRNA vs vehicle control group): +
- Behavior of gene caused by administration of chemical substance, Gene No. 1163 ([1]; mRNA vs vehicle control group): −
- Behavior of gene caused by administration of chemical substance, Gene No. 4973 ([1]; mRNA vs vehicle control group): +
- Behavior of gene caused by administration of chemical substance, Gene No. 4095 ([1]; mRNA vs vehicle control group): +
- Behavior of gene caused by administration of chemical substance, Gene No. 1334 ([1]; mRNA vs vehicle control group): −
- Behavior of gene caused by administration of chemical substance, Gene No. 6620 ([1]; mRNA vs vehicle control group): −
- Behavior of gene caused by administration of chemical substance, Gene No. 6303 ([1]; mRNA vs vehicle control group): −
- Behavior of gene caused by administration of chemical substance, Gene No. 5878 ([1]; mRNA vs vehicle control group): −
- Behavior of gene caused by administration of chemical substance, Gene No. 1131 ([1]; mRNA vs vehicle control group): −
- Behavior of gene caused by administration of chemical substance, Gene No. 1562 ([1]; mRNA vs vehicle control group): −
- Behavior of gene caused by administration of chemical substance, Gene No. 1741 ([1]; mRNA vs vehicle control group): −
- Behavior of gene caused by administration of chemical substance, Gene No. 893 ([1]; mRNA vs vehicle control group): −
- Behavior of gene caused by administration of chemical substance, Gene No. 6026 ([1]; mRNA vs vehicle control group): −
- Behavior of gene caused by administration of chemical substance, Gene No. 154 ([1]; mRNA vs vehicle control group): −
- Behavior of gene caused by administration of chemical substance, Gene No. 1993 ([1]; mRNA vs vehicle control group): −
- Behavior of gene caused by administration of chemical substance, Gene No. 813 ([1]; mRNA vs vehicle control group): −
- Behavior of gene caused by administration of chemical substance, Gene No. 2494 ([1]; mRNA vs vehicle control group): −
- Behavior of gene caused by administration of chemical substance, Gene No. 2546 ([1]; mRNA vs vehicle control group): −
- Behavior of gene caused by administration of chemical substance, Gene No. 3776 ([1]; mRNA vs vehicle control group): −
- Behavior of gene caused by administration of chemical substance, Gene No. 3929 ([1]; mRNA vs vehicle control group): −
- Behavior of gene caused by administration of chemical substance, Gene No. 1119 ([1]; mRNA vs vehicle control group): −
- Behavior of gene caused by administration of chemical substance, Gene No. 6742 ([1]; mRNA vs vehicle control group): −
- Behavior of gene caused by administration of chemical substance, Gene No. 5634 ([1]; mRNA vs vehicle control group): −
- Behavior of gene caused by administration of chemical substance, Gene No. 5726 ([1]; mRNA vs vehicle control group): +
- Liver carcinogenicity ([2]; classification of the substance (Cr+/Cr−)): Cr−
- Carcinogenicity [3]: C+
- Mutagenicity by Ames test [4]: M−

SMILES: O=C(OC[C@H]1O[C@@H](OC(=O)c2cc(O)c(O)c(OC(=O)c3cc(O)c(O)c(O)c3)c2)[C@H](OC(=O)c2cc(O)c(O)c(OC(=O)c3cc(O)c(O)c(O)c3)c2)[C@@H](OC(=O)c2cc(O)c(O)c(OC(=O)c3cc(O)c(O)c(O)c3)c2)[C@@H]1OC(=O)c1cc(O)c(O)c(OC(=O)c2cc(O)c(O)c(O)c2)c1)c1cc(O)c(O)c(OC(=O)c2cc(O)c(O)c(O)c2)c1 [TS052, Tannic acid]
- Behavior of gene caused by administration of chemical substance, Gene No. 4846 [1]: −
- Behavior of gene caused by administration of chemical substance, Gene No. 2026 [1]: −
- Behavior of gene caused by administration of chemical substance, Gene No. 4218 [1]: −
- Behavior of gene caused by administration of chemical substance, Gene No. 6182 [1]: −
- Behavior of gene caused by administration of chemical substance, Gene No. 5600 [1]: −
- Behavior of gene caused by administration of chemical substance, Gene No. 1494 [1]: −
- Behavior of gene caused by administration of chemical substance, Gene No. 2045 [1]: −
- Behavior of gene caused by administration of chemical substance, Gene No. 2203 [1]: +
- Behavior of gene caused by administration of chemical substance, Gene No. 533 [1]: −
- Behavior of gene caused by administration of chemical substance, Gene No. 725 [1]: −
- Behavior of gene caused by administration of chemical substance, Gene No. 1163 [1]: +
- Behavior of gene caused by administration of chemical substance, Gene No. 4973 [1]: −
- Behavior of gene caused by administration of chemical substance, Gene No. 4095 [1]: −
- Behavior of gene caused by administration of chemical substance, Gene No. 1334 [1]: −
- Behavior of gene caused by administration of chemical substance, Gene No. 6620 [1]: −
- Behavior of gene caused by administration of chemical substance, Gene No. 6303 [1]: −
- Behavior of gene caused by administration of chemical substance, Gene No. 5878 [1]: −
- Behavior of gene caused by administration of chemical substance, Gene No. 1131 [1]: −
- Behavior of gene caused by administration of chemical substance, Gene No. 1562 [1]: −
- Behavior of gene caused by administration of chemical substance, Gene No. 1741 [1]: −
- Behavior of gene caused by administration of chemical substance, Gene No. 893 [1]: −
- Behavior of gene caused by administration of chemical substance, Gene No. 6026 [1]: −
- Behavior of gene caused by administration of chemical substance, Gene No. 154 [1]: −
- Behavior of gene caused by administration of chemical substance, Gene No. 1993 [1]: −
- Behavior of gene caused by administration of chemical substance, Gene No. 813 [1]: −
- Behavior of gene caused by administration of chemical substance, Gene No. 2494 [1]: −
- Behavior of gene caused by administration of chemical substance, Gene No. 2546 [1]: −
- Behavior of gene caused by administration of chemical substance, Gene No. 3776 [1]: −
- Behavior of gene caused by administration of chemical substance, Gene No. 3929 [1]: −
- Behavior of gene caused by administration of chemical substance, Gene No. 1119 [1]: −
- Behavior of gene caused by administration of chemical substance, Gene No. 6742 [1]: −
- Behavior of gene caused by administration of chemical substance, Gene No. 5634 [1]: −
- Behavior of gene caused by administration of chemical substance, Gene No. 5726 [1]: −
- Liver carcinogenicity ([2]; in vivo): Cr+
- Carcinogenicity [3]: C+
- Mutagenicity by Ames test [4]: M−
